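The compound was tested at five concentrations on cells cultured in 96-well plates, with a 48-hour exposure period. GI50 is the concentration that inhibits growth by half. At the TGI there is no net growth.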 Bounds are passed on as bounds.

In the first experiment the test system is LXFL 529 NSCLC. Description: NCI tumour cell line growth inhibition, 48 h.
The molecule `c1ccc(SC2CCSc3ccccc3C2Sc2ccccc2)cc1` (configuration not stated) came in with a TGI greater than 100 µM.
`COC(=O)[C@]1(C)CCCC2(C)C1CC[C@H]1C=C(C)[C@H]3CCC12C3` (some centres not stated) showed a TGI greater than 100 µM.
Molecule `O=c1n(-c2ccccc2)c(=O)n2n1C1C=CC2C2C(C1)C2(Cl)Cl` (configuration not stated) gave a TGI greater than 100 µM.
Same read-out and setting: the figure for `Cc1ccc(Cn2c(C)nc3c2C(=O)c2ccccc2C3=O)cc1` is 58 µM.
Consider `CCOC(=O)C(C)(C)Oc1ccc2c(C)c(-c3ccc(Cl)cc3)c(=O)oc2c1`, for which the TGI is greater than 100 µM.
`Cc1c(Cl)cccc1N1C(=O)C(Cl)=C(Cl)C1=O` gave a TGI greater than 100 µM.
`COc1ccc(NC(=O)/C(N=O)=C(/C)O)cc1` yielded a TGI greater than 100 µM.
Turning to `COc1cccc(/C=N/[N-]C(=O)c2ccncc2)c1[O-].[Cu+2].[OH3+]`, the GI50 was 57.7 µM and the TGI is greater than 100 µM.
Regarding `CCc1c(OC(C)=O)c2c(NC3OC(COC(C)=O)C(OC(C)=O)C(OC(C)=O)C3OC(C)=O)nc(OC)nc2oc1=O` (configuration not stated), the TGI was greater than 100 µM.
`O=C(NC(=O)c1cn(CCNCCO)c(=O)[nH]c1=O)OCc1ccccc1` yielded a TGI greater than 100 µM.
Consider `O=[N+]([O-])c1ccc(-n2nnc(C3=NCCN3)c2-c2ccc(Cl)cc2)cc1`, for which the TGI was greater than 100 µM.
Still for that read-out and setting: to `O=C(c1ccc(Cl)cc1)c1cnc(Nc2ccccc2Cl)s1` belongs 32.8 µM; to `CCC1C2C=CC(CC2)N1S(=O)(=O)c1ccc(C)cc1` (configuration not stated), 55.5 µM; to `CCOc1ccc(N2C(=O)/C(=C/c3ccc(N(CCC#N)CCC#N)cc3)N=C2c2cc([N+](=O)[O-])ccc2Cl)cc1`, 95 µM.
On to `COc1ccc(-c2cc(-c3ccccc3)c(C#N)c(=O)n2C2OC(CO)C(O)C(O)C2O)cc1` (configuration not stated), for which the TGI is greater than 100 µM.
Take `CCOC(=O)C1(c2ccccc2)CCC(=O)CC1`: the TGI was greater than 100 µM.
Consider `O=C(N/N=C1/C(=O)N(c2ccc(Cl)cc2Cl)C(=O)C(=O)C1c1nc2ccccc2o1)c1ccccc1O` (configuration not stated), for which the TGI is greater than 100 µM.
`CC(=O)O[C@H]1CCC2[C@@H]3CCC4=C(O)c5nocc5C[C@]4(C)C3CC[C@@]21C` (some centres not stated) registered a TGI greater than 100 µM.
In turn, `O=C(O)CSc1n[nH]c(-c2ccccc2)n1` returned a TGI greater than 100 µM.
`CCCCCCC[CH2][Sn]1([CH2]CCCCCCC)[O]C(=O)c2cccnc2[S]1`: the GI50 was greater than 100 µM and the TGI was greater than 100 µM.
`O=C1[C@@H]2C3c4ccccc4C([C@@H]2C(=O)N1c1ccccc1)S3(=O)=O` yielded a TGI greater than 100 µM.
In turn, `COc1ccc(/C(=N\NC(=O)C(N)=O)C(c2ccc(OC)cc2)C2(O)C(=O)Nc3c(Cl)cccc32)cc1` (configuration not stated) came in with a TGI greater than 100 µM.
Regarding `Cc1ccc(S(=O)(=O)N/N=C/c2oc(-c3ccncc3)c(-c3ccncc3)c2[N+](=O)[O-])cc1`, the TGI is greater than 100 µM.
In turn, `CCc1cccc(C)c1NC(=O)C(=O)Cc1nc2ccccc2o1` showed a TGI greater than 100 µM.
The molecule `O=C(O)[C@H](NS(=O)(=O)c1ccc2ccccc2c1)c1ccccc1` came in with a TGI greater than 100 µM.
For `CCOc1ccc2c(c1)[n+]([O-])c(-c1ccccc1Cl)c(N)[n+]2[O-]`, the TGI is greater than 100 µM.
Molecule `O=C1c2ccccc2C2(O)c3cc4ccccc4cc3OC12O` (configuration not stated) had a TGI greater than 100 µM.
Regarding `CN(C)c1c([O-])c(=[N+](C)C)c1=O`, the TGI was greater than 100 µM.

For the next experiment, the system named is M19-MEL melanoma. Description: NCI tumour cell line growth inhibition, 48 h.
Regarding `O=C(Nc1cc(Cl)ccc1Cl)c1cc2cccc(Cl)c2oc1=O`, the TGI was greater than 100 µM.
Take `O=c1n(-c2ccccc2)c(=O)n2n1C1C=CC2C2C(C1)C2(Cl)Cl` (configuration not stated): the TGI was greater than 100 µM.
Turning to `COC1C(O)=C2C(=O)O/C(C)=C/C=C/C=C/C=C\CC(c3ccccc3)NC(=O)\C=C/C=C\C=C\C=C\[C@@]2(C)[C@@H]1O` (some centres not stated), the TGI came to 0.273 µM.
`Cc1ccc(Cn2c(C)nc3c2C(=O)c2ccccc2C3=O)cc1` registered a TGI of 21.1 µM.
With `CCOC(=O)C(C)(C)Oc1ccc2c(C)c(-c3ccc(Cl)cc3)c(=O)oc2c1`, the TGI is greater than 100 µM.
With `Cc1c(Cl)cccc1N1C(=O)C(Cl)=C(Cl)C1=O`, the TGI is greater than 100 µM.
In the case of `COc1cccc(/C=N/[N-]C(=O)c2ccncc2)c1[O-].[Cu+2].[OH3+]`, the GI50 is greater than 100 µM and the TGI was greater than 100 µM.
`CCc1c(OC(C)=O)c2c(NC3OC(COC(C)=O)C(OC(C)=O)C(OC(C)=O)C3OC(C)=O)nc(OC)nc2oc1=O` (configuration not stated) showed a TGI greater than 100 µM.
In turn, `O=C(NC(=O)c1cn(CCNCCO)c(=O)[nH]c1=O)OCc1ccccc1` displayed a TGI greater than 100 µM.
Molecule `O=[N+]([O-])c1ccc(-n2nnc(C3=NCCN3)c2-c2ccc(Cl)cc2)cc1` showed a TGI greater than 100 µM.
On the same count and under the same terms, the figure for `O=C(c1ccc(Cl)cc1)c1cnc(Nc2ccccc2Cl)s1` is greater than 100 µM.
As to `CCC1C2C=CC(CC2)N1S(=O)(=O)c1ccc(C)cc1` (configuration not stated), the TGI was greater than 100 µM.
On the same count and under the same terms, the figure for `CCOc1ccc(N2C(=O)/C(=C/c3ccc(N(CCC#N)CCC#N)cc3)N=C2c2cc([N+](=O)[O-])ccc2Cl)cc1` is 66.5 µM; for `COc1ccc(-c2cc(-c3ccccc3)c(C#N)c(=O)n2C2OC(CO)C(O)C(O)C2O)cc1` (configuration not stated) it is greater than 100 µM.
As to `CCOC(=O)C1(c2ccccc2)CCC(=O)CC1`, the TGI is greater than 100 µM.
As for `O=C(N/N=C1/C(=O)N(c2ccc(Cl)cc2Cl)C(=O)C(=O)C1c1nc2ccccc2o1)c1ccccc1O` (configuration not stated), the TGI is greater than 100 µM.
`CC(=O)O[C@H]1CCC2[C@@H]3CCC4=C(O)c5nocc5C[C@]4(C)C3CC[C@@]21C` (some centres not stated): the TGI was greater than 100 µM.
On to `O=C(O)CSc1n[nH]c(-c2ccccc2)n1`, for which the TGI is greater than 100 µM.
As to `CCCCCCC[CH2][Sn]1([CH2]CCCCCCC)[O]C(=O)c2cccnc2[S]1`, the GI50 is greater than 100 µM and the TGI is greater than 100 µM.
In turn, `O=C1[C@@H]2C3c4ccccc4C([C@@H]2C(=O)N1c1ccccc1)S3(=O)=O` had a TGI greater than 100 µM.

These data come from PubChem BioAssay (NCI).
